Earlier results as cited in patent EP0408384A1, “N,N'-dicarboxymethyl, N,N'-dicarbamoylmethyl diaminoalkane derivatives and their use in pharmaceutical compositions” (BRITISH TECHNOLOGY GROUP LIMITED, priority 1989, dated 1991).

Test system: daunorubicin toxicity
Details: acute daunorubicin toxicity; literature report

Compound | protection against the lethal effects of daunorubicin
O=C1CN(CCN2CC(=O)N(CN3CCOCC3)C(=O)C2)CC(=O)N1CN1CCOCC1 [bimolane] | give protection
CC(CN1CC(=O)NC(=O)C1)N1CC(=O)NC(=O)C1 (centres unmarked) [compound having R = CH₃ and R′ = R˝ = H] | give protection
